In assay [1] the target is T1, NEP (Rattus norvegicus, UniProt P07861).
T1 construct: peripheral tissue membrane preparations that are known to be enriched in NEP-peptidase; from tissue; host or cells: rat renal outer medulla/kidney, intestine mucosa, placenta, prostate, dental and bone tissues, submandibular gland (membrane preparations)
T1 sequence (P07861 2-750): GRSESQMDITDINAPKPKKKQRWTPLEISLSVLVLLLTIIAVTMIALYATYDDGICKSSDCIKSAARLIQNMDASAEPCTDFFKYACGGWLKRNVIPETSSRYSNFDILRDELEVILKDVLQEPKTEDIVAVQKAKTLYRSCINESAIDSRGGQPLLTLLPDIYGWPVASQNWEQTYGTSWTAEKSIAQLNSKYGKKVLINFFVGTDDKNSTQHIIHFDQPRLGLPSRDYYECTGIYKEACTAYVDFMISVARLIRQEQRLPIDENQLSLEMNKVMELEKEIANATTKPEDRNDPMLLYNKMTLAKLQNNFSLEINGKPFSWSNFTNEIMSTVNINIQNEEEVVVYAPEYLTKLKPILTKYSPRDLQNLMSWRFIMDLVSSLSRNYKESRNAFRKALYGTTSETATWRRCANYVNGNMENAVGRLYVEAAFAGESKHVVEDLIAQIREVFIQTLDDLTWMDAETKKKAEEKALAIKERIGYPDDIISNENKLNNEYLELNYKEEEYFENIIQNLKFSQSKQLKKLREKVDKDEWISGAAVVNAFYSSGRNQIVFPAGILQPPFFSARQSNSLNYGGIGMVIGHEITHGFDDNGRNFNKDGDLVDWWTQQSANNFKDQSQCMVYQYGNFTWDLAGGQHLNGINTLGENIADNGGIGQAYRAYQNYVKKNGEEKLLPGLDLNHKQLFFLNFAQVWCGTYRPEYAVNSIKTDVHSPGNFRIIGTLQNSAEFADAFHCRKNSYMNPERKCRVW
As to the kind of experiment: Kinetic analysis of inhibition of substance P catabolism by rat renal membranes. It counts as biochemical. The procedure:
The inhibitory potency of sialophin was measured by using substance P as substrate at concentrations indicated for A and B, and at 14-24 nM (blank triangle) or 56-105 nM (black triangle) for FIG. 5-C. Concentrations of inhibitor for FIG. 5-A and FIG. 5-B were 0 (black circles), 1500 (blank circle) and 4500 nM (blank diamond). Each point of the untransformed and double reciprocal plots represents the mean of 2 independent determinations of duplicate. Experiments were performed at 25° C. in 250 μl Tris-HCl buffer (50 mM pH 7.4) under initial velocity measurement conditions.
In order to determine inhibitor modality, all the measures of initial velocity of the renal enzymatic reaction were plotted versus substrate concentration for several fixed inhibitor concentrations or versus inhibitor concentration for fixed substrate concentrations.

For assay [2], the target named is T1, NEP. As to the kind of experiment: Substance P endoproteolysis by rat peripheral tissue membrane preparations. It counts as biochemical. Here is the method:
FIG. 4-A: Endopeptidase activity of the tissue membrane preparations was determined using 25 nM [3H] substanceP, in the presence of 10 μM bestatin. The enzymatic specific activity expressed in pM/min/μg membrane protein is done in the absence and in the presence of 10 μM sialorphin or NEP inhibitors (10 μM phosphoramidon or 1 μM thiorphan).
FIG. 4-B: Concentration-dependent inhibition by sialorphin of [3H] substanceP catabolism by rat renal membrane preparations. Each point represents the percentage of […] intact [3H] substanceP recovered and calculated as percentage of velocity without inhibitor−velocity in presence of inhibitor/velocity without inhibitor, and (*) represents the mean±SD of four determinations. Sialorphin concentration is expressed in nM and plotted on a log scale in B right. The protein concentration of membrane enzyme were defined according to conditions of measurement of initial velocity.
The same approach was applied to peripheral tissue membrane preparations that are known to be enriched in NEP-peptidase and/or to be targets for sialorphin, in vivo, i.e., renal outer medulla, intestine mucosa, placenta, prostate, dental and bone tissues, as well as submandibular epithelium (Rougeot, C. et al, American Journal of Physiology, (1997) 273, R1309-20; Sales et al., (1991) Regulatory Peptides 33, 209-22) and reviewed by Kenny et al., (1987), Mammalian ectoenzymes 169-210. There is evidence that, almost all these tissues contain substance P released from peripheral parasympathetic and sensory nerve terminals acting near the site of release on target cells that contain the neurokinin receptors to modulate the particular tissue function (McCarson et al., (1999), Neuroscience 93, 361-70). Thus, it appeared that the neuropeptide could be regarded as a relevant biologically NEP substrate at the periphery. However, substance P is cleaved potently by NEP and ACE membrane-bound peptidases, and both enzymes are highly distributed in the renal epithelium (Skidgel et al., (1985), Progress in Clinical & Biological Research 192, 371-8).
The specificity of the peptidase assay was assessed by testing the inhibitory efficacy of selective peptidase inhibitors (at 1-10 μM final concentration to induce maximum inhibitory response) on the endoproteolysis of 3H substance P by the various tissue-membrane enzymes, and by analysing the selective formation of the NEP-related tritiated product of the reaction that was defined, as above using spinal tissue. In addition, under standard conditions of initial velocity measurement, bestatin (10 μM) was added in the incubation medium to prevent unselectively the membrane aminopeptidase activities.

The term inhibition denotes the relative decrease from the control value, in per cent. By IC50 is commonly meant the concentration needed to halve the response being measured.

Where a SMILES comes first, the peptide text is derived from it.

As for `N=C(N)NCCC[C@H](NC(=O)[C@@H]1CCCN1C(=O)[C@H](CC(N)=O)NC(=O)[C@H](Cc1c[nH]cn1)NC(=O)[C@@H](N)CCC(N)=O)C(=O)O` [sialorphin, Gln-His-Asn-Pro-Arg] (H-QHNPR-OH; N-terminus and C-terminus assumed), the “raising of the apparent Km of the enzyme for substrate” value in assay [1] (0, 1500 and 4500 nM inhibitor, substance P substrate, rat renal membranes) is given as 2-5 fold. Further, the inhibitor modality result in assay [1] (untransformed, double-reciprocal and Dixon plots, [3H] substance P, renal membrane, 25° C.) is given as “competitive inhibition”. Besides, the “inhibitory efficacy on ectopeptidase-sensitive substance P degradation” value in assay [2] (inner bone tissues, n=4) was 75±10%. Further, the inhibition at 10 µM in assay [2] (male rat kidney membranes, 25 nM [3H] substance P, 10 μM bestatin, 10 μM sialorphin, n=9, read-out: inhibition of renal membrane substance-P-hydrolytic activity (maximum inhibitory response)) is 60 ± 5%. Further, in assay [2] (membrane fractions of the rat intestine), the “protection of exogenous 3H substance P from catabolic process” value came to 87±17%. The “inhibition of substance-P-hydrolytic activity” value in assay [2] (rat SMG (submandibular gland) membranes) came out at 79%. Also, in assay [2] (rat inner dental tissue membranes, inhibitors at 1-10 μM (sialorphin 10 μM)), the “reduction of 3H-substance P catabolic process” value is 39±14%. Besides, the “decrease of substance P degradation” value in assay [2] (rat placenta and prostate tissue membranes, 10 μM) was 70±3%. For the same molecule, the IC50 in assay [2] (rat renal membrane preparations, read-out: IC50 on 3H substance-P degradation by rat kidney) lay within 500 to 1000 nM.

Values taken from patent publication US7625713B2, “Process for identifying a ligand that binds to the NEP binding site for the SMR1 pentapeptide” (Institut Pasteur, priority 2000, dated 2009).
